US20070207996A1, “Novel Compositions And Methods Of Treatment” (priority 2004, published 2007)

Experiments:
[1] = tested on: P388 lymphocytic leukemia; assay: Drug combination efficacy study in advanced systemic P388 lymphocytic leukemia model; format: in vivo, mice
Experimental: (§1) Female B6D2F1 mice (Charles River Laboratories, Raleigh, N.C.) were used in these studies. All procedures were performed in accordance with protocols approved by the SB Institutional Animal Care and Use Committee, and met or exceeded the standards of the American Association for the Accreditation of Laboratory Animal Care (AAALAC), the United States Department of Health and Human Services and all local and federal animal welfare laws.
(§2) MAP and PCR tested P388 lymphocytic leukemia cell lines obtained originally from the National Cancer Institute Repository at Frederick Cancer Research Center, Frederick, Md., were used in these studies. P388 lymphocytic leukemia were maintained by serial i.p. transplantation in syngeneic B6D2F1 mice. […] Protocols for screening chemical agents and natural products against animal tumors and other biological systems. Cancer Chemother. […] All tumor tissues are presently in cryopreservation within the department of Molecular and Cellular Oncology.
(§3) For efficacy studies, P388 lymphocytic leukemia were harvested aseptically from the peritoneal cavity of donor mice, pooled, diluted with Earle's Balanced Salt Solution and trypan blue, and counted using a hemocytometer. An inoculum of 0.2 ml (5×10^6/ml) was implanted i.v. in the lateral tail vein of female BDF1 mice using a 25 gauge needle. The tumor inoculum was tested for bacterial contamination as determined by a 24-hr incubation in thioglycollate broth.
(§4) Each experiment included two groups of untreated tumor-bearing controls, and a titration of tumor cells in untreated animals (ranging from 10^1 to 10^5 so that drug-induced cell kill (NCK) could be calculated. Drug treatment was initiated 48 hrs after tumor implantation. Specific endpoints calculated from this model are % increase in median lifespan (% ILS) relative to the untreated control animals and log net change in tumor cell burden following therapy (NCK).

[2] = as above; format: in vivo, mice; conditions: female, B6D2F1, mouse, in vivo
Experimental: as §1, §2, §3, §4

in vivo = conditions: mouse
[3] = First Time in Human Study of Compound A, monotherapy once every 21 days; format: in vivo; conditions: once every 21 day schedule, prior study in humans
[4] = doxorubicin alone 12 mg/kg, ip Days 2, 6, 10
[5] = gemcitabine alone 200 mg/kg, ip Days 2, 6, 10
[6] = ip, single agent, ip Days 2, 6, 10, gemcitabine study, read-out: MTD
[7] = irinotecan alone 54 mg/kg, ip q4dx3
[8] = irinotecan alone 150 mg/kg (MTD), ip q4dx3
[9] = ip, single agent, ip q4dx3 Days 2, 6, 10, irinotecan study, read-out: MTD
[10] = Compound A 2.6 mg/kg alone, ip Days 2, 6, 10, 5FU study
[11] = Compound A 4.3 mg/kg alone, ip Days 2, 6, 10, 5FU study
[12] = Compound A alone 4.3 mg/kg (MTD), ip q4dx3, first cisplatin study
[13] = Compound A alone 4.3 mg/kg (MTD), doxorubicin study
[14] = Compound A alone 6 mg/kg (MTD), irinotecan study
[15] = Compound A alone 7.2 mg/kg (MTD), repeat cisplatin study
[16] = Compound A alone 10 mg/kg, gemcitabine study
[17] = 5FU 26 mg/kg alone, ip Days 2, 6, 10
[18] = 5FU 43 mg/kg alone, ip Days 2, 6, 10
[19] = 5FU 72 mg/kg alone, ip Days 2, 6, 10
[20] = 5FU 120 mg/kg alone, ip Days 2, 6, 10
[21] = cisplatin alone 4 mg/kg, ip q4dx3, first cisplatin study
[22] = cisplatin alone 4 mg/kg, repeat cisplatin study

## COc1cccc2c1C(=O)c1c(O)c3c(c(O)c1C2=O)C[C@@](O)(C(=O)CO)C[C@@H]3O[C@H]1C[C@H](N)[C@H](O)[C@H](C)O1 [Doxorubicin, doxorubicin, reference compound]
[1]; [4]
  % ILS (increase in life span): 89%
  log cell kill (net cell kill): no log cell kill

## Nc1ccn([C@@H]2O[C@H](CO)[C@@H](O)C2(F)F)c(=O)n1 [Gemcitabine, gemcitabine, reference compound]
[1]; [5]
  % ILS (increase in life span): 289%
  log cell kill (net cell kill): > 7.3 log
[1]; gemcitabine alone at 120 mg/kg or less
  efficacy at lower doses: less effective
[2]; [6]
  MTD: ≥ 200 mg/kg

## CCc1c2c(nc3ccc(OC(=O)N4CCC(N5CCCCC5)CC4)cc13)-c1cc3c(c(=O)n1C2)COC(=O)[C@]3(O)CC [Irinotecan, irinotecan, reference compound]
[1]; [7]
  % ILS (increase in life span): 211%
  log cell kill (net cell kill): 4.8 log
[1]; [8]
  % ILS (increase in life span): > 450%
  log cell kill (net cell kill): > 6.9 log
[2]; [9]
  MTD: 150 mg/kg

## CS(=O)(=O)O.Cc1ccc(C(=O)N(CCCN)[C@@H](c2nc3cc(Cl)ccc3c(=O)n2Cc2ccccc2)C(C)C)cc1 [Compound A, N-(3-aminopropyl)-N-[(1R)-1-[7-chloro-3,4-dihydro-4-oxo-3-(phenylmethyl)-2-quinazolinyl]-2-methylpropyl]-4-methylbenzamide, mesylate salt]
In vivo
  MTD: 10 mg/kg
MX-1 breast carcinoma; Compound A alone at MTD of 10 mg/kg, q4dx3
  activity against MX-1: refractory
[3]
  MTD: 18 mg/m^2
[1]; [10]
  % ILS: 78%
  Net Cell Kill: [0] log
[1]; [11]
  % ILS: 122%
  Net Cell Kill: [1.1] log
[1]; Compound A 7.2 mg/kg (MTD) alone, ip Days 2, 6, 10, 5FU study
  % ILS: 178%
[1]; Compound A 12 mg/kg alone, ip Days 2, 6, 10, 5FU study
  toxicity at dose level: Toxic
[1]; Compound A 20 mg/kg alone, ip Days 2, 6, 10, 5FU study
  toxicity at dose level: Toxic
[1]; [12]
  % ILS (increase in life span): 144%
  log cell kill (net cell kill): 1.8 log
[1]; [13]
  % ILS (increase in life span): 156%
  log cell kill (net cell kill): 1.3 log
[1]; [14]
  % ILS (increase in life span): 167%
  log cell kill (net cell kill): 3.0 log
[1]; [15]
  % ILS (increase in life span): 144%
  log cell kill (net cell kill): 2.2 log
[1]; [16]
  % ILS (increase in life span): 211%
  log cell kill (net cell kill): 6.2 log
[1]; combined with 0.86 or 1.44 mg/kg cisplatin, first cisplatin study
  MTD of Compound A in combination versus alone: higher MTD
[2]; intraperitoneal, increased from 7.2 alone, repeat cisplatin study, read-out: MTD of Compound A in combination with cisplatin
  MTD: 12 mg/kg
[2]; ip, single agent, ip Days 2, 6, 10, doxorubicin study, read-out: MTD
  MTD: 4.3 mg/kg
[2]; [6]
  MTD: ≥ 10 mg/kg
[2]; ip, single agent, ip q4dx3, 5FU study, read-out: MTD
  MTD: 7.2 mg/kg
[2]; ip, single agent, ip q4dx3, first cisplatin study, read-out: MTD
  MTD: 4.3 mg/kg
[2]; ip, single agent, ip q4dx3, repeat cisplatin study, read-out: MTD
  MTD: 7.2 mg/kg
[2]; [9]
  MTD: 6 mg/kg

## O=c1[nH]cc(F)c(=O)[nH]1 [Compound 5FU, 5-fluorouracil, reference compound]
[1]; [17]
  % ILS: 33%
  Net Cell Kill: [0] log
[1]; [18]
  % ILS: 55%
  Net Cell Kill: [0] log
[1]; 5FU 43 mg/kg alone, ip Days 2, 6, 10, listed as 5 FU
  Net Cell Kill: no log cell kill
[1]; [19]
  % ILS: 44%
  Net Cell Kill: [0] log
[1]; [20]
  % ILS: 22%
  Net Cell Kill: [0] log
[1]; 5FU 200 mg/kg alone, ip Days 2, 6, 10
  toxicity at dose level: Toxic

## N.N.[Cl][Pt][Cl] [Cisplatin, cisplatin, reference compound]
[1]; [21]
  % ILS (increase in life span): 200%
  log cell kill (net cell kill): 3.7 log
[1]; [22]
  % ILS (increase in life span): 133%
  log cell kill (net cell kill): 1.7 log

## CCCCCOC(=O)Nc1nc(=O)n([C@@H]2O[C@H](C)[C@@H](O)[C@H]2O)cc1F [CAP, Capecitabine, reference compound]
In vivo
  MTD: 500 mg/kg
MX-1 breast carcinoma; CAP alone 500 and 250 mg/kg, daily for two 5 day cycles with 2 day rest
  MX-1 tumor growth: slight delay in MX-1 tumor growth
